Source: patent publication US6037490A, “Boron-containing amino carboxylic acid compounds and uses thereof” (priority 1997, dated 2000)
Entries after “also recorded” stand apart in the source; their conditions may differ. Like-named read-outs stand apart in the source and are kept apart here.

Assays:
A549 lung cancer cells [1] = assay: Cellular toxicity, colony survival assay in A549 lung cancer cells; conditions: for A549 cell survival (Table 1) / level above which all cell growth is suppressed: seven day experiment
Description: (§1) The cells were plated for undisturbed colony growth for seven to ten days and a survival assay was performed. Colonies were washed with isotonic saline and absolute methanol before staining with Giemsa and standard colony counting.

A549 lung cancer cells [2] = assay: Cellular boron uptake by inductively coupled plasma mass spectroscopy; format: cell-based
Description: The measurement of total cellular boron was made using inductively coupled mass spectrometry. Boron concentrations were measured against a calibration curve generated with a series of NIST traceable standards. Yttrium and indium (20 ng/ml) internal standards were employed to correct for drift. Analyte recoveries were monitored by the addition of boron spikes (20 ng/ml) to the samples. Analyte response was corrected accordingly. Finally, a boron standard of 60 ng/ml was utilized to ensure continued calibration. […] The lung cancer cell culture with boron exposed cells was washed by centrifugation twice, and the supernate was removed by suction prior to chemical analysis. […] All the reagents for sample preparation were analytical grade. Concentrated nitric acid (1-2 ml) and 30% hydrogen peroxide was applied to the cells.
The nitric acid-hydrogen peroxide cocktail was allowed 96 hours for cellular digestion in tubes that facilitated the venting of generated gases. Intermittent stirring was also performed on the sample tubes. All contents were transformed to boron-free tubes and the final volume was adjusted with distilled water to a 10 ml total volume for each sample tested.

A549 lung cancer cells [3] = assay: Neutron irradiation (252Cf) cell survival, kill constant; format: cell-based; conditions: regression of semi-log cell survival plots, 252Cf neutrons
Description: The irradiation was performed by known techniques. The ^252 Cf isotope is a useful source of neutrons for BNCT (Hatanaka 1991, A). The neutron spectrum and beam characteristics are similar to those of reactor fission sources with a most probable energy of about 1 MeV. A 50 mg source of ^252 Cf moderated by water provides a source of 1×10^9 thermal neutrons/cm^2 /sec at a distance of 3 cm (personnel communication Dr. R. Martin). The half-life of ^252 Cf is 2.65 years, thus this provides a simple and reliable source of neutrons for BNCT in locations without suitable nuclear reactors.
This work was performed using sealed ^252 Cf source capsules in a hot cell without transferable radioactive contamination using a double tube arrangement which contained 1.0 ml of A 549 lung cancer cells (maximum cell number 2×10^6 cells/ml and minimum cell number 2×10^3 cells/ml). The cancer cells were exposed to approximately 2×10^8 thermal neutrons per cm^2 per second from 30 mg of ^252 Cf. The flux of neutrons was determined by the irradiation of manganese wire and subsequent analysis of activation. The duration of exposure of cells was 30 sec. 1, 1.5, 2.0 and 4.0 minutes for control groups and boronated compounds. Following radiation exposure, the A 549 lung cancer cells were placed on ice for subculturing and cell survival studies.
All boronated compounds tested worked as agents in boron neutron capture reactions. Cell survival data was calculated from semi-log plots and subjected to a regression analysis to obtain an X coefficient (kill constant) for each compound.

A549 lung cancer cells [4] = conditions: for level above which all cell growth is suppressed: human, 10080 min
Description: as §1

[5] = tested on: human glioblastoma multiforme (brain) tumors; assay: Boron biodistribution (tumor, normal brain) in mice bearing human glioblastoma multiforme tumors; format: in vivo; conditions: sodium salt
Description: The water soluble sodium salt of the boron containing amino carboxylic compound VIII, was injected into four mice bearing human glioblastoma multiforme (brain) tumors on their hind quarter. One animal was sacrificed after 3 hours, 6 hours, 12 hours, and 24 hours and tissue samples were taken from the tumor, normal brain tissue, blood and muscle. At three hours the tumor contained 52 parts per million of boron and the normal brain contained only 7.6 ppm (a ratio of nearly 7:1). At twelve hours the tumor boron concentration was 37 ppm and the normal brain concentration was 3.7 ppm (a ratio of 10:1).

[6] = mice receiving the compound; cited from earlier work
tumor cells [7] = conditions: cited from earlier work; for ratio of boron in tumor cells compared to normal cells: in vivo
tumor cells [8] = conditions: in vivo; cited from earlier work

Row | Compound | A549 cell survival (Table 1) (A549 lung cancer cells [1]; 1.25 μg B/ml) | A549 cell survival (Table 1) (A549 lung cancer cells [1]; 2.5 μg B/ml) | A549 cell survival (Table 1) (A549 lung cancer cells [1]; 5.0 μg B/ml) | A549 cell survival (Table 1) (A549 lung cancer cells [1]; 10.0 μg B/ml) | A549 cell survival (Table 1) (A549 lung cancer cells [1]; 15.0 μg B/ml) | A549 cell survival (Table 1) (A549 lung cancer cells [1]; 20.0 μg B/ml) | Atoms of ^10 B in cell (A549 lung cancer cells [2]) | kill constant (absolute value of X coefficient) (A549 lung cancer cells [3]) | BNCT treatment outcome (tumor cells [8]) | further results
1 | 1-Amino-3-[2-(1,7 dicarba-closo-dodecacaboran(12)-1-yl)ethyl]cyclobutanecarboxylic acid [ACBC] | 39 | 14 | 8 | 8 | 0 | 0 | 2749 × 10^9 atoms ^10 B/cell | 2.71 | – | cellular uptake (words) (A549 lung cancer cells [2]): greatest cellular uptake; also recorded: almost two orders of magnitude greater in uptake than the other compounds tested; also recorded: excellent cellular uptake; toxicity (A549 lung cancer cells [4]): low toxicity; level above which all cell growth is suppressed (A549 lung cancer cells [4]): above 10 μg B/ml
2 | 1-amino-3-[2-(7-(2-hydroxyethyl)-1,7-dicarba-nido-dodecacaboran(12)-ylethyl]cyclobutanecarboxylic acid [VIII] | – | – | – | – | – | – | – | – | – | normal brain boron concentration ([5]; 3 hours): 7.6 ppm; normal brain boron concentration ([5]; 12 hours): 3.7 ppm; tumor boron concentration ([5]; 3 hours after injection): 52 parts per million; tumor boron concentration ([5]; 12 hours): 37 ppm
3 | 2,4-divinyl-nido-o-carboranyldeuteroporphoryin IX [VCDP] | – | – | – | – | – | – | – | – | – | mortality of mice [6]: about 10%
4 | 2-amino-5-[2-methyl]-1,2-dicarba-closo-dodecacarboran(12)-1-yl] pentane carboxylic acid [LSK 1-38] | 50 | 33 | 18 | 2 | 0 | 0 | 96 × 10^9 atoms ^10 B/cell | 2.64 | – | toxicity (A549 lung cancer cells [1]; A549 lung cancer cells): low toxicity; level above which all cell growth is suppressed (A549 lung cancer cells [1]): above 10 μg B/ml; cellular uptake (words) (A549 lung cancer cells [2]; listed as LSK1-38): excellent cellular uptake; cellular uptake (words) (A549 lung cancer cells [2]; listed as LSK-138): next highest cellular uptake
5 | 5(4carboranyl-1-butynyl) uridine [CDU-4] | 22 | 69 | 0 | 0 | 0 | 0 | 10 × 10^9 atoms ^10 B/cell | 2.87 | – | level above which all cell growth is suppressed (A549 lung cancer cells [1]): above 2.5 μg B/ml; cellular uptake (words) (A549 lung cancer cells [2]): lowest in cellular uptake
6 | 5(5carboranyl-1-pentynyl) deoxyuridine [CN-V-264] | 10 | 4 | 0 | 0 | 0 | 0 | 50 × 10^9 atoms ^10 B/cell | 2.88 | – | cellular uptake (words) (A549 lung cancer cells [2]): lowest in cellular uptake; level above which all cell growth is suppressed (A549 lung cancer cells [4]): above 2.5 μg B/ml
7 | N[C@@H](Cc1ccc(B(O)O)cc1)C(=O)O [BPA, boronophenylalanine] | – | – | – | – | – | – | – | – | – | deleterious effects (tumor cells [7]; compared with porphyrin): without the deleterious effects seen, for example, with porphyrin
8 | O=BOB(O)OB(O)OB=O [borax] | – | – | – | – | – | – | – | – | treatment failure because of the lack of localization of boron within tumor cells | –
9 | O=C(O)c1ccc(B(O)O)cc1 [p-carboxybenzeneboronic acid] | – | – | – | – | – | – | – | – | failed due to vascular damage caused by high blood levels of boron | ratio of boron in tumor cells compared to normal cells (tumor cells [7]): high ratios of boron in tumor cells compared to normal cells
10 | O=BOB1OB2OB([O-])OB(O1)O2.[Na+] [sodium pentaborate] | – | – | – | – | – | – | – | – | treatment failure because of the lack of localization of boron within tumor cells | –
11 | sodium decahydrodecaborate | – | – | – | – | – | – | – | – | failed due to vascular damage caused by high blood levels of boron | ratio of boron in tumor cells compared to normal cells (tumor cells [7]): high ratios of boron in tumor cells compared to normal cells
